Measurements from PubChem BioAssay (NCI).
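Step 1: Grow cells in 96-well plates. Step 2: Expose to compound for 48 hours at 5 concentrations. Step 3: Interpolate endpoints linearly; if unreached, use highest concentration. GI50 = concentration required for 50% inhibition of growth. TGI is the concentration that stops growth completely.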

Columns and labels:
Assay in all cases: inhibition of tumour cell growth, NCI panel, 48 h
SK-OV-3 ovarian = tested on: SK-OV-3 ovarian
UO-31 renal = tested on: UO-31 renal
COLO 205 colon = tested on: COLO 205 colon
UACC-62 melanoma = tested on: UACC-62 melanoma
ACHN renal = tested on: ACHN renal
A549 NSCLC = tested on: A549 NSCLC
MDA-MB-435 = tested on: MDA-MB-435
SK-MEL-28 melanoma = tested on: SK-MEL-28 melanoma
OVCAR-4 ovarian = tested on: OVCAR-4 ovarian
RXF 393 renal = tested on: RXF 393 renal

SMILES	TGI (SK-OV-3 ovarian)	TGI (UO-31 renal)	TGI (COLO 205 colon)	TGI (UACC-62 melanoma)	TGI (ACHN renal)	TGI (A549 NSCLC)	TGI (MDA-MB-435)	TGI (SK-MEL-28 melanoma)	TGI (OVCAR-4 ovarian)	TGI (RXF 393 renal)	GI50 (SK-OV-3 ovarian)	GI50 (SK-MEL-28 melanoma)	GI50 (OVCAR-4 ovarian)	GI50 (RXF 393 renal)	GI50 (COLO 205 colon)	GI50 (UO-31 renal)	GI50 (UACC-62 melanoma)	GI50 (ACHN renal)	GI50 (MDA-MB-435)
C=CCOC(C)(C)C1=CCC(C)CC1 (stereo unspecified)	> 100 µM	> 100 µM	> 100 µM	> 100 µM	> 100 µM	> 100 µM	> 100 µM	> 100 µM	> 100 µM	> 100 µM	–	–	–	–	–	–	–	–	–
CN(C)c1cccc2c(S(=O)(=O)NCCN)cccc12	> 100 µM	> 100 µM	> 100 µM	> 100 µM	> 100 µM	> 100 µM	> 100 µM	> 100 µM	> 100 µM	> 100 µM	–	–	–	–	–	–	–	–	–
Cc1cc(-c2ccc(N=Nc3ccc4c(S(=O)(=O)O)cc(S(=O)(=O)O)c(N)c4c3O)c(C)c2)ccc1N=Nc1ccc2c(S(=O)(=O)O)cc(S(=O)(=O)O)c(N)c2c1O	> 100 µM	> 100 µM	> 100 µM	> 100 µM	–	> 100 µM	–	> 100 µM	> 100 µM	> 100 µM	–	–	–	–	–	–	–	–	–
COc1ccc(S(=O)(=O)NC(CCC(=O)NC(N)=O)C(=O)NC(N)=O)cc1 (stereo unspecified)	> 100 µM	> 100 µM	> 100 µM	> 100 µM	> 100 µM	> 100 µM	> 100 µM	> 100 µM	> 100 µM	–	–	–	–	–	–	–	–	–	–
COc1cc2c(cc1OC)C1=C(C=O)c3ccc(OC)c(OC)c3C(O)N1CC2 (stereo unspecified)	> 100 µM	> 100 µM	64.1 µM	29.4 µM	> 100 µM	> 100 µM	> 100 µM	> 100 µM	> 100 µM	–	–	–	–	–	–	–	–	–	–
CC1(C)C(=O)/C(=C/c2ccccc2)C(C)(C)C1(C)C	> 100 µM	> 100 µM	> 100 µM	> 100 µM	> 100 µM	> 100 µM	> 86.6 µM	> 100 µM	> 100 µM	> 100 µM	–	–	–	–	–	–	–	–	–
CCNC(=S)N/N=C(/C)c1cccc(/C(C)=N\NC(=S)NCC)n1	73.8 µM	> 63.6 µM	> 23.5 µM	27.2 µM	> 66.9 µM	> 82.9 µM	> 100 µM	> 100 µM	> 100 µM	33.5 µM	–	–	–	–	–	–	–	–	–
COc1ccc2oc(=O)c(-c3cc4c(c(C)n3)c(=O)oc3ccc(OC)cc34)cc2c1	> 100 µM	> 100 µM	> 100 µM	> 100 µM	86 µM	> 100 µM	> 100 µM	> 100 µM	–	> 100 µM	–	–	–	–	–	–	–	–	–
O=S(Nc1ccccc1)c1ccc(Cl)cc1 (stereo unspecified)	–	> 100 µM	> 100 µM	90 µM	> 100 µM	> 100 µM	> 100 µM	> 100 µM	> 100 µM	–	–	–	–	–	–	–	–	–	–
O=C(/C=C/c1ccccc1)c1cc(CN2CCOCC2)c(O)c(CN2CCOCC2)c1	–	31.3 µM	23.6 µM	39.5 µM	8.26 µM	33.2 µM	32.3 µM	29.4 µM	–	35.8 µM	–	–	–	–	–	–	–	–	–
O=C(Nc1cccc2ccccc12)c1cc2ccccc2oc1=O	> 100 µM	–	> 100 µM	> 100 µM	> 100 µM	> 100 µM	> 100 µM	> 100 µM	> 100 µM	> 100 µM	–	–	–	–	–	–	–	–	–
COc1ccc(/C(C=O)=C(\Cl)c2ccc(OC)c(OC)c2)cc1	> 100 µM	> 100 µM	–	> 100 µM	> 100 µM	> 100 µM	–	–	> 100 µM	> 100 µM	–	–	–	–	–	–	–	–	–
COc1ccc(C(=CCC(C)C2CCC3[C@@H]4C(OC(C)=O)CC5CC(OC(C)=O)CC[C@]5(C)C4CC(OC(C)=O)[C@]23C)c2ccc(OC)cc2)cc1 (stereo partly specified)	> 100 µM	> 100 µM	> 100 µM	–	> 100 µM	> 100 µM	> 100 µM	> 100 µM	> 100 µM	–	–	–	–	–	–	–	–	–	–
CN(Cc1cnc2nc(N)nc(N)c2n1)c1ccc(C(=O)NC(CCC(=O)O)C(=O)O)c2ccccc12 (stereo unspecified)	> 1000 µM	> 1000 µM	–	> 1000 µM	> 1000 µM	> 1000 µM	> 1000 µM	–	> 1000 µM	> 1000 µM	55.3 µM	0.0616 µM	> 1000 µM	> 1000 µM	–	–	–	–	–
Cc1ccc(S(=O)(=O)OCCN(CCOS(=O)(=O)c2ccc(C)cc2)c2ccc(C=O)cc2)cc1	–	41.3 µM	> 100 µM	39.5 µM	> 100 µM	> 100 µM	44.4 µM	81.3 µM	44.3 µM	33.2 µM	–	–	–	–	–	–	–	–	–
COc1cccc(/C=N/[N-]C(N)=O)c1[O-].[Cu+2].[OH3+]	–	31.7 µM	> 100 µM	–	24.8 µM	–	–	27.8 µM	32.3 µM	36.2 µM	–	–	–	–	9.49 µM	–	–	–	–
NCCCNc1nc2ccccc2c2c(=O)c3cc(Cl)ccc3sc12	3.48 µM	2.58 µM	3.1 µM	3.16 µM	2.92 µM	–	3.18 µM	–	–	–	1.58 µM	–	–	–	1.63 µM	1.28 µM	1.67 µM	1.57 µM	1.75 µM
CCOC(=O)N1CCNCCN(C(=O)OCC)CCNCC1	–	> 100 µM	> 100 µM	> 100 µM	> 100 µM	> 100 µM	> 100 µM	> 100 µM	> 100 µM	> 100 µM	–	–	–	–	–	–	–	–	–
CC(=O)OC12c3ccccc3C(c3ccccc31)C1C(=O)N(N=C(C)C)C(=O)C12 (stereo unspecified)	> 100 µM	> 100 µM	> 100 µM	> 100 µM	–	> 100 µM	–	> 100 µM	> 100 µM	> 100 µM	–	–	–	–	–	–	–	–	–
CC(=O)O[C@H]1CC[C@@H](OC(C)=O)[C@H]2[C@H](O)[C@H](O)[C@@H]1n1c(=O)n(-c3ccccc3)c(=O)n12	–	> 100 µM	> 100 µM	> 100 µM	> 100 µM	> 100 µM	> 100 µM	> 100 µM	> 100 µM	> 100 µM	–	–	–	–	–	–	–	–	–
CC(C)C(NCc1c2ccccc2[n+](C)c2ccccc12)C(=O)O (stereo unspecified)	31 µM	21.7 µM	10.6 µM	18.6 µM	16.4 µM	29.9 µM	–	26.8 µM	20.7 µM	12.5 µM	–	–	–	–	–	–	–	–	–
CC(C)(NO)/C(=N\O)c1ccccc1	–	> 10 µM	> 10 µM	–	> 10 µM	–	> 10 µM	–	> 10 µM	> 10 µM	–	–	–	–	–	–	–	–	–
